Assay results as given in patent US4146631A, “Benzamide derivatives” (May & Baker Limited, priority 1976, dated 1979).

How the values were obtained:
[1] = test system: passive cutaneous anaphylactic (PCA) reaction; experiment: Passive cutaneous anaphylactic (PCA) reaction, reagin-allergen combination, in rats; assay type: in vivo; settings: Rattus norvegicus
Description: In pharmacological tests the benzamide derivatives of general formula I suppress the passive cutaneous anaphylactic (PCA) reaction resulting from combination of tissue-fixed reaginic antibodies with the appropriate antigenic material (termed reagin-allergen combination) and carried out in an essentially similar manner to that described by Ogilvie [Nature (Lond.), (1964), 204, 91-92; Immunology, (1967), 12, 112-131]. In the method used to test these compounds sera were obtained from rats which had been infected with larvae of the nematode parasite Nippostrongylus brasiliensis; as a result of the parasitic infestation reaginic antibodies are elaborated in the host mammal and are found in sera removed from such animals. Other, non-infected, rats received intradermal injections of appropriate dilutions of such sera and were then given the allergenic material along with Evans' blue dye intravenously forty-eight hours later.
The allergenic material consisted of supernatant fluid after centrifugation of homogenates of adult Nippostrongylus brasiliensis worms which had been macerated in Tyrode's solution. The sites of PCA reactions were visualised by the effusion of Evan's blue dye from the circulation into those areas as a result of increased capillary permeability caused by the release of biologically-active substances from cells where reagin-allergen combination had occurred. The new compounds when given intravenously to the rats just before injection of allergen, or administered orally thirty minutes before intravenous injection of allergen, were able to prevent the development of the PCA reaction, as shown below in Table I, Table II and Table III.

[2] = Acute oral toxicity in mice; settings: mouse, in vivo, highest dose used 1000 mg/kg, read-out: LD50 (doses lethal to 50% of mice tested)
Description: Mice were each treated orally with one of the compounds of formula I, and they were observed daily until there had been at least 3 consecutive days without any deaths. The LD50 figures obtained (doses lethal to 50% of mice tested) are shown below in Table IV, expressed in mg/kg animal body weight.
The symbol ">" means "greater than" in this specification. Where the LD50 is said to be ">1000," a more precise estimation of the LD50 was not possible because the numbers of deaths was too small, even at the highest dose used, 1000 mg/kg.

[3] = Acute intravenous toxicity in mice; settings: mouse, in vivo, triethanolamine salt (T), 2% w/v test solution
Description: Mice were each treated intravenously with an aqueous solution of the triethanolamine salt or sodium salt of one of the compounds of formula I, and they were observed until there had been at least 3 consecutive days without any deaths. The LD50 figures obtained (doses lethal to 50% of mice tested) are shown below in Table V, expressed in mg/kg animal body weight. In Table V, "Na" means that the sodium salt was used and "T" means that the triethanolamine salt was used.
The aqueous solutions were prepared as follows:
A mixture of the test compound and water was treated gradually with triethanolamine until complete solution occurred. The solution was then diluted with water to a concentration of test compound of either 1% w/v or 2% w/v.
The test compound was dissolved in aqueous sodium hydroxide (1N) and the solution was brought to pH 8 by treatment with hydrochloric acid. The solution was then diluted with water to a concentration of test compound of 2% w/v.
Various volumes of these solutions were then administered to the mice.

CC(=O)c1cc([N+](=O)[O-])cc(C(=O)Nc2nnn[nH]2)c1O [Compound CS, 3acetyl-2-hydroxy-5-nitro-N-(tetrazol-5-yl)benzamide]
ED100 ([1]; intravenous, just before injection of allergen, read-out: ED100 (intravenous dose which produces 100% inhibition of the PCA reaction)): 0.1 mg/kg | inhibition in vivo at 100 mg/kg ([1]; oral dose of 100 mg/kg, thirty minutes before intravenous allergen): 54% | LD50 [2]: > 1000 mg/kg | LD50 [3]: 780 mg/kg
